Data taken from patent US6946260B2, “Allergen/inflammatory testing and diagnosis” (Euro/DPC Limited, priority 1992, dated 2005).

How the values were obtained:
Assay type in all cases: cell-based, rat
[1] = tested on: RBL-2H3 cell-line transfected with the α-chain of the human high-affinity receptor for IgE; test: Attenuation of antigen- or irritant-induced mediator release by antagonists; details: competing sugars; lectins of e.g. pollen or bacterial and viral agglutinins
Procedure: For example, where a composition was being tested or developed for its ability to attenuate an IgE mediated response such as asthma or hay fever, antigen specific IgE would be present, for example, in the form of human serum.
Following incubation, cells were washed (2×1 ml) with buffer A (120 mM NaC1, 5 mM KC1, 25 mM PIPES, 1 mM CaC12, 0.04 mM MgC12, 5.6 mM glucose, 0.1% BSA, pH7.4) and pre-incubated for a further period of 10 minutes at 37 degrees C. with buffer A (0.5 ml) which was removed before challenge with buffer A (0.4 ml) supplemented with a pre-selected antigen (in an amount as afore described) and the therapeutic composition or the antagonist.
For the determination of antigen induced [^3H]-5HT release, the well was incubated at 37 degrees C. for 15 minutes, cooled on ice, supernatant was then removed and spun at 2000 g (1 minute) before liquid scintillation counting (2 minutes). The percentage release of [^3H]-5HT was calculated by the method of Siraganian and Hook.

[2] = tested on: RBL-2H3 (H 2/2/C) transfectants; test: Antigen-induced mediator release after sensitization with serum from a bee-venom-allergic individual; details: cells sensitized with serum (1:10) of bee venom sensitive individual (EC), increasing antigen concentrations
Procedure: Triggering of RBL-2H3 (H 2/2/C) transfectants following sensitization with serum from a bee-venom-allergic individual. Cells were incubated with the serum (1:10), Dex (10-^6M) and [^3H]-5HT. After washing and pre-incubation the cells were challenged with a range of concentrations of purified bee venom phospholipase A2 (PLA2). The percentage release of [^3H]-5HT (●) and β-hexosaminidase (∘) were determined; data were corrected for background and normalized with respect to values obtained for triggering with hIgE-DNP (1 μg/mL and NIP-HSA (100 ng/mL).
Transfected RBL-2H3 clones were incubated for 24 hours with or without serum (1:10 dilution) from a bee venom sensitive individual (EC) in the presence of 10-^6M dexamethazone and [^3H]-5-hydroxytryptamine. […]
[^3H]-5-Hydroxytyptamine was measured after a 15 minutes incubation period, release was corrected for background and expressed relative to the total [^3H]-5-hydroxytryptamine incorporated. […]
For the determination of antigen induced [^3H]-5HT release, the well was incubated at 37 degrees C. for 15 minutes, cooled on ice, supernatant was then removed and spun at 2000 g (1 minute) before liquid scintillation counting (2 minutes). The percentage release of [^3H]-5HT was calculated by the method of Siraganian and Hook (Manual of Clinical Immunology of the American Society for Microbiology Washington D.C., 1980 Page 808).

[3] = tested on: RBL-2H3 cell-line transfected with the α-chain of the human high-affinity receptor for IgE; test: Irritant/antigen-induced mediator release in the absence of IgE sensitization; details: control, no sensitizing serum; same antigen concentrations
Procedure: Parent RBL-2H3 cells or clones transfected with the α-chain of the human high-affinity receptor complex were plated out in 24-well plates at 2×10^5 cells/well as described previously in the citations referred to on Page 2 of this application. For the determination of antigen-induced mediator release, plates were incubated at 37 degrees C. for 15 minutes, cooled on ice, the supernatant was removed, spun at […] (1 minute) before liquid scintillation counting to measure [^3H]-5-hydroxytryptamine (5-HT release. The ImmunoTech histamine enzyme immunoassay was used to quantify histamine release, and hydrolysis of toluene sulphonyl methyl ester was employed to monitor protease release (please see Wilson, A. P. M., Pullar, C. E., Camp, A. M., and Helm B. A., Human IgE Mediates Stimulus Secretion Coupling in Rat Basophilic Leukemia Cells Transfected with the Alpha Chain of the Human High-Affinity Receptor, European Journal of Immunology, 23:240-244, 1993, or alternatively, please see other references cited on Page 2 of this application). […]
For the determination of irritant or antigen induced [^3H]-5HT release, the well was incubated at 37 degrees C. for 15 minutes, cooled in ice, supernatant was then removed and spun at 2000 g (1 minute) before liquid scintillation counting (2 minutes). The percentage release of [^3H]-5HT was calculated by the method of Siraganian and Hook. […]

| Compound | inhibition of triggering of mast cells and basophils by lectins [1] | further results |
| --- | --- | --- |
| CC(=O)N[C@H]1[C@H]([C@H](O)[C@H](O)CO)OC(O)(C(=O)O)C[C@@H]1O (stereo partly drawn) [N-acetyl neuraminic acid] | can inhibit the triggering of mast cells and basophils |  |
| CC(=O)N[C@H]1C(O)O[C@H](CO)[C@@H](O)[C@@H]1O (stereo partly drawn) [N-acetyl-D-glucosamin] | can inhibit the triggering of mast cells and basophils |  |
| C[C@@H]1O[C@@H](O)[C@@H](O)[C@H](O)[C@@H]1O [a-L-fucose] | can inhibit the triggering of mast cells and basophils |  |
| CO[C@H]1O[C@H](CO)[C@@H](O)[C@H](O)[C@@H]1O [a-methyl-mannoside] | can inhibit the triggering of mast cells and basophils |  |
| OC[C@H]1O[C@@H](O)[C@H](O)[C@@H](O)[C@H]1O [b-D-galactose] | can inhibit the triggering of mast cells and basophils |  |
| OC[C@H]1O[C@@H](O[C@H]2[C@H](O)[C@@H](O)C(O)O[C@@H]2CO)[C@H](O)[C@@H](O)[C@H]1O (stereo partly drawn) [lactose] | can inhibit the triggering of mast cells and basophils |  |
| bee venom phospholipase A2 |  | mediator release ([3H]-5HT, β-hexosaminidase) dose response in sensitized cells [2]: typical bell-shaped dose response pattern; mediator release ([3H]-5HT, β-hexosaminidase) dose response in sensitized cells ([2]; listed as bee venom PLA2): typical bell-shaped dose response curve; mediator release dose response in non-sensitized cells [3]: mediator release increased in response to antigen concentration |
